Test results taken from US5578574A, “Antithrombotic agents” (Eli Lilly and Company, priority 1995, dated 1996).
Square brackets hold non-standard residues; d marks the D form. Peptide text beside a SMILES is read from it. ξ: configuration not given here. dPip = O=C(O)[C@H]1CCCCN1; dThz = O=C(O)[C@H]1CSCN1; ξAze = O=C(O)C1CCN1

Key:
[1] = Index of Bioavailability (plasma thrombin time AUC, oral vs i.v.); type: in vivo; details: rats; dose-adjusted AUC of plasma TT time course, p.o. vs i.v. bolus
Text: Assays are done in duplicate and averaged.
Each sample population represents alternating sequential time points.

[2] = biological target: human thrombin (Homo sapiens, UniProt P00734); experiment: Human thrombin inhibition (amidase activity, chromogenic substrate; Kass); details: purified human thrombin, mean over a range of concentrations
Method: Standard curves are constructed by plotting free thrombin concentration against hydrolysis rate. […] The amount of free inhibitor in each assay is calculated by subtracting the number of moles of bound thrombin from the number of moles of added inhibitor (test compound).
Kass is calculated for a range of concentrations of test compounds and the mean value reported in units of liter per mole.

[3] = tested on: thrombin; details: Bajusz et al., J. Med. Chem., 33, 1729-1735 (1990); cited from earlier work
[4] = early clinical studies, Simoons et al.; cited from earlier work
[5] = Pharmacokinetic model in dogs, single oral dose; type: in vivo, dogs (Beagles); details: single 2 mg/kg oral dose
Method: Male dogs (Beagles; 18 months-2 years; 12-13 kg, Marshall Farms, North Rose, N.Y. 14516) are fasted overnight and fed Purina certified Prescription Diet (Purina Mills, St. Louis, Miss.) 240 minutes after dosing. Water is available ad libitum. The room temperature is maintained between 66°-74° F.; 45-50 percent relative humidity; and lighted from 0600-1800 hours.
Test compound is formulated immediately prior to dosing by dissolving in sterile 0.9 percent saline to a 5 mg/ml preparation. Dogs are given a single 2 mg/kg dose of test compound by oral garage. Blood samples (4.5 ml) are taken from the cephalic vein at 0.25, 0.5, 0.75, 1,2,3,4 and 6 hours after dosing. Samples are collected in citrated Vacutainer tubes and kept on ice prior to reduction to plasma by centrifugation. Plasma samples are derivatized with dinitrophenylhydrazine and analyzed by HPLC (Zorbax SB-C8 column) eluting with methanol/500 mM sodium acetate adjusted to pH7 with phosphoric acid (60:40, v/v). Plasma concentration of test compound is recorded and used to calculate the pharmacokinetic parameters: elimination rate constant, Ke; total clearance, Clt; volume of distribution, VD; time of maximum plasma test compound concentration, Tmax; maximum concentration of test compound of Tmax, Cmax; plasma half-life, t0.5; and area under the curve, A.U.C.; fraction of test compound absorbed, F.

[6] = Template Bleeding Time assay (gingival); type: in vivo, dog; details: 0.25, 0.50 and 1.0 mg/kg.hr; over a 240 minute time
Method: Whole blood cell counts, hemoglobin, and hematocrit values are determined on a 40-μl sample of citrated (3.8 percent) blood (1 part citrate:9 parts blood) with a hematology analyzer (Cell-Dyn 900, Sequoia-Turner. Mount View, Calif., U.S.A.). Gingival template bleeding times are determined with a Simplate II bleeding time device (Organon Teknika Durham, N.C., U.S.A.). The device is used to make 2 horizontal incisions in the gingiva of either the upper or lower left jaw of the dog. Each incision is 3 mm wide×2 mm deep. The incisions are made, and a stopwatch is used to determine how long bleeding occurs. A cotton swab is used to soak up the blood as it oozes from the incision. Template bleeding time is the time from incision to stoppage of bleeding. Bleeding times are taken just before administration of test compound (0 min), 60 min into infusion, at conclusion of administration of the test compound (120 min), and at the end of the experiment.
All data are analyzed by one-way analysis of variance (ANOVA) followed by Student-Neuman-Kuels post hoc t test to determine the level of significance. Repeated-measures ANOVA are used to determine significant differences between time points during the experiments. Values are determined to be statistically different at least at the level of p<0.05. All values are mean ±SEM. […]

Row | Molecule | Percent Relative Activity (Index of Bioavailability) [1] | Kass × 10^6 (l/mole) [2] | further results
1 | Cl.Cl.N=C(N)NCCC[C@@H](C=O)NC(=O)[C@@H]1CCCN1C(=O)[C@H]1CSCN1 [Example 4, D-Thiazolidinyl-4-Carbonyl-L-Prolinyl-L-Arginine Aldehyde Dihydrochloride] (H-[dThz]-Pro-Arg-aldehyde) | 16% | 5 × 10^6 l/mole | –
2 | Cl.Cl.Cl.N=C(N)NCCC[C@@H](C=O)NC(=O)[C@@H]1CCCN1C(=O)[C@H]1C[C@@H](Oc2ccccc2)CN1.O (relative stereo) [Example 12, D-Cis-(4-phenoxy) Prolinyl-L-Prolinyl-L-Arginine Aldehyde Trihydrochloride Monohydrate] | 16% | 25 × 10^6 l/mole | –
3 | Cl.Cl.N=C(N)NCCC[C@@H](C=O)NC(=O)[C@@H]1CCCN1C(=O)C1CNCCN1 (stereo partly drawn) [Example 9, D,L-Piperazin-2-oyl-L-Prolinyl-L-Arginine Aldehyde Dihydrochloride] | 19% | 121 × 10^6 l/mole | –
4 | Cl.Cl.Cl.N=C(N)NCCC[C@@H](C=O)NC(=O)[C@@H]1CCCN1C(=O)[C@H]1C[C@H](Oc2ccc3ccccc3c2)CN1.O [Example 6, trans-4-(2-Naphthyloxy)-D-Prolinyl-L-Prolinyl-L-Arginine Aldehyde Trihydrochloride Monohydrate] | – | 21 × 10^6 l/mole | –
5 | Cl.Cl.Cl.N=C(N)NCCC[C@@H](C=O)NC(=O)[C@@H]1CCCN1C(=O)[C@H]1C[C@H](Sc2ccccc2)CN1.O.O.O [Example 14, trans-4-phenylthio-D-prolinyl-L-prolinyl-L-arginine aldehyde trihydrochloride trihydrate] | – | 37 × 10^6 l/mole | –
6 | N=C(N)NCCC[C@@H](C=O)NC(=O)[C@@H]1CCCN1C(=O)[C@H](N)Cc1ccccc1 [D-Phe-Pro-Arg-H] | – | – | direct inhibition of thrombin [3]: potent direct inhibition of thrombin
7 | CC(C)(C)OC(=O)N[C@H](Cc1ccccc1)C(=O)N1CCC[C@H]1C(=O)N[C@H](C=O)CCCNC(=N)N [Boc-D-Phe-Pro-Arg-H] | – | – | direct inhibition of thrombin [3]: potent direct inhibition of thrombin
8 | D-Prolinyl-L-Prolinyl-L-Arginine Aldehyde Dihydrochloride [Example 2] | 36% | 12 × 10^6 l/mole | –
9 | CN[C@H](Cc1ccccc1)C(=O)N1CCC[C@H]1C(=O)N[C@H](C=O)CCCNC(=N)N.O=S(=O)(O)O [D-MePhe-Pro-Arg-H sulfate] | – | – | anticoagulant in man [4]: is an anticoagulant in man
10 | Cl.Cl.N=C(N)NCCC[C@@H](C=O)NC(=O)[C@@H]1CCCN1C(=O)[C@H]1CCCCN1 [Example 1, D-Homoprolinyl-L-Prolinyl-L-Arginine Aldehyde Dihydrochloride] (H-[dPip]-Pro-Arg-aldehyde) | 38% | 46 × 10^6 l/mole | A.U.C. o-infinity [5]: 4651 ng·h/mL; Cmax [5]: 1676 ng/mL; Ke (elimination rate constant) [5]: 0.0104 min⁻¹; Tmax [5]: 1 to 2 h; VD/F (volume of distribution) [5]: 0.729 L/kg; t0.5 (plasma half-life) [5]: 1.12 h; effect on template bleeding time [6]: no significant effect on template bleeding time
11 | Cl.Cl.N=C(N)NCCC[C@@H](C=O)NC(=O)C1CCN1C(=O)[C@H]1CCCCN1 (stereo partly drawn) [Example 3, D-Homoprolinyl-L-Azetidinyl-L-Arginine Aldehyde Dihydrochloride] (H-[dPip]-[ξAze]-Arg-aldehyde) | 32% | 45 × 10^6 l/mole | –
12 | Cl.Cl.N=C(N)NCCC[C@@H](C=O)NC(=O)[C@@H]1CCCN1C(=O)C1NCCCC2CCCCC21 (mixture of isomers) [Example 8, DL-cis-3-aza-bicyclo[5.4.0]undecanyl-2-carbonyl-L-prolinyl-L-arginine aldehyde dihydrochloride] | 43% | 595 × 10^6 l/mole | –
13 | CC(C)C1N[C@@H](C(=O)N2CCC[C@H]2C(=O)N[C@H](C=O)CCCNC(=N)N)C(C)(C)S1.Cl.Cl (stereo partly drawn) [Example 5, D-2-Isopropyl-5,5-Dimethylthiazolidinyl-4-Carbonyl-L-Prolinyl-L-Arginine Aldehyde Dihydrochloride] | – | 4 × 10^6 l/mole | –
14 | CN[C@H](Cc1ccccc1)C(=O)N1CCC[C@H]1C(=O)N[C@H](C=O)CCCNC(=N)N [D-MePhe-Pro-Arg-H] | – | – | direct inhibition of thrombin [3]: potent direct inhibition of thrombin
15 | Cl.Cl.N=C(N)NCCC[C@@H](C=O)NC(=O)[C@@H]1CCCN1C(=O)C1NCCS1 (stereo partly drawn) [Example 10, D,L-Thiazolidinyl-2-carbonyl-L-prolinyl-L-arginine aldehyde dihydrochloride] | 5% | 27 × 10^6 l/mole | –
